Test: Inhibitory concentration against dipeptidyl peptidase IV
Compound O=C(c1nc2ccccc2s1)[C@@H]1CCN1C(=O)CNC1CCCCC1 has an IC50 of 190 nM. With C[C@H](N)C(=O)N1CCCC1P(=O)(Oc1ccccc1)Oc1ccccc1 (stereo not given in full) the IC50 was 15 nM. For O=C(c1nc2ccccc2s1)[C@@H]1CCCN1C(=O)CNC1CCCCC1, the IC50 was 300 nM. For O=c1c(C2CCCCC2)nc(-c2nccs2)c2n1CCC2, the IC50 was greater than 100000 nM. CCC(C)C(N)C(=O)N1CCC[C@H]1C(=O)c1nc2ccccc2s1 (stereo not given in full) showed an IC50 of 100 nM. N[C@@H](C(=O)N1CCCC[C@H]1C(=O)c1nccs1)C1CCCCC1 showed an IC50 greater than 100000 nM. N[C@@H](C(=O)N1CC[C@@H]1C(=O)c1nccs1)C1CCCCC1 gave an IC50 of 40 nM. In the case of N[C@@H](C(=O)N1CCC[C@@H]1C(=O)c1nccs1)C1CCCCC1, the IC50 is reported as 1000 nM. N[C@@H](C(=O)N1CCCC[C@@H]1C(=O)c1nccs1)C1CCCCC1 gave an IC50 greater than 100000 nM. In the case of N[C@H](C(=O)N1CCSC1)C1CCCCC1, the IC50 is reported as 150 nM. CC[C@H](C)[C@H](N)C(=O)N1CC[C@H]1C(=O)c1nc2ccccc2s1 gave an IC50 of 200 nM. Compound N[C@H](C(=O)N1CCCC1)C1CCCCC1 has an IC50 of 125 nM. With N#C[C@@H]1CCCN1C(=O)[C@@H](N)C1CCCCC1 the IC50 was 8 nM. With CC(C)(C)NCC(=O)N1CCC1C(=O)c1nc2ccccc2s1 (stereo not given) the IC50 was 100 nM. With O=C(c1nc2ccccc2s1)C1CCN1C(=O)[C@@H]1C[C@@H]2CCCC[C@@H]2N1 (stereo not given in full) the IC50 was 115 nM. Compound O=C(c1ccccc1)[C@@H]1CCCN1C(=O)[C@@H]1C[C@@H]2CCCC[C@@H]2N1 has an IC50 greater than 100000 nM. In the case of O=C(c1cccnc1)[C@@H]1CCCN1C(=O)[C@@H]1C[C@@H]2CCCC[C@@H]2N1, the IC50 is reported as greater than 100000 nM. Compound Cn1cncc1C(=O)[C@@H]1CCCN1C(=O)[C@@H]1C[C@@H]2CCCC[C@@H]2N1 has an IC50 greater than 100000 nM. Compound CC(=O)[C@@H]1CCCN1C(=O)[C@@H]1C[C@@H]2CCCC[C@@H]2N1 has an IC50 greater than 100000 nM.

Test: Inhibition constant against dipeptidyl peptidase IV
For CC(C)[C@H](N)C(=O)N1CCC[C@H]1B(O)O [TALABOSTAT], the Ki was 2 nM.

Source: ChEMBL document CHEMBL1138026, “Ketopyrrolidines and ketoazetidines as potent dipeptidyl peptidase IV (DPP IV) inhibitors” (Bioorg Med Chem Lett, 2004)
